Molecular target: EAAT2 (Homo sapiens, UniProt P43004)
Test: Inhibition of [14C]-glutamic acid uptake by EAAT2 expressed in MDCK or COS-1 cells
Format: cell-based
Set-up: expressed in transfected cells
Details: glutamate transporter, subtype not given
Method: In accordance with a known method (Shimamoto, K. et al., Mol. Pharmacol. 53, 195-201, 1998; Bioorg. Med. Chem. Lett. 10, 2407-2410, 2000), the inhibitory activity was assayed as the ability to inhibit the uptake of [^14C]-glutamic acid by human EAAT2 and EAAT3 stably expressed in MDCK (Madin-Darby canine kidney) cells or transiently expressed in COS-1 cells. The glutamate uptake activity was assayed by incubating a mixture of 1 μM of L-[^14C]-glutamic acid with a sample compound at a predetermined concentration for 12 minutes, lysing the cells and then measuring the radioactivity incorporated into the cells with a liquid scintillator. The amount of uptake was expressed in percentage by referring the amount of uptake in the absence of a test compound (i.e., the buffer alone) as 100% and referring the amount of uptake in a sodium-free solution as 0%.

EAAT2, sequence (P43004 whole entry): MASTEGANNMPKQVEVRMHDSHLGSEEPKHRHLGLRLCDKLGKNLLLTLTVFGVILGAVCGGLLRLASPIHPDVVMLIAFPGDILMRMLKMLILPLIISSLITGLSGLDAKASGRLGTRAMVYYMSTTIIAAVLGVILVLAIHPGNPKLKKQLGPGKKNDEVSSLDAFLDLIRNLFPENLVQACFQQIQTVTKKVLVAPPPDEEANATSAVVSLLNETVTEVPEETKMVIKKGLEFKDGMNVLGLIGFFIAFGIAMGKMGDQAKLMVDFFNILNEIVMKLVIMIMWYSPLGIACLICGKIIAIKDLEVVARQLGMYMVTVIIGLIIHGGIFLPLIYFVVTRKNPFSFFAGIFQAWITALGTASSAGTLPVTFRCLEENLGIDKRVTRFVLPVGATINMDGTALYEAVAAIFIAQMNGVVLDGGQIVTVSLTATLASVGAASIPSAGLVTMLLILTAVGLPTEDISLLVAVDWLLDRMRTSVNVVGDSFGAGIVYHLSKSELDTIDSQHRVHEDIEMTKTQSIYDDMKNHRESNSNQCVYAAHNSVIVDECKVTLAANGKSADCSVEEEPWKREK

IC50 for glutamate transporter (in words): several ten nM order
Compound: N[C@H](C(=O)O)[C@H](OCc1cccc(NC(=O)c2ccc(F)cc2)c1)C(=O)O [F-BzA-TBOA]
